The values below come from US12336981B2, “Compounds and compositions for the inhibition of NAMPT” (Valo Health, Inc., priority 2010, dated 2025).

The target in one test is T1, NAMPT (Homo sapiens, UniProt P43490).
T1 construct: His tag; host or cells: E. coli
The experiment in a line: Biochemical inhibition assay: NAMPT enzymatic reaction, NMN quantified by mass spectrometry. The conditions noted are these: read-out: Biochem IC50. Summed up:
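Inhibition of E. coli-expressed His-tagged human NAMPT, measured as NMN formation by mass spectrometry after a 30 min room-temperature reaction containing 1 μM NAM, 100 μM PRPP and 2.5 mM ATP.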

The test system of the next test is A2780 cells. The experiment in a line: In-vitro cell proliferation assay (SRB), A2780 cells. The settings on record: Homo sapiens, A2780, 72 h, A2780 cells, 72 hours, read-out: A2780 IC50. The class given is cell-based. Summed up: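 Growth inhibition was derived from background-corrected SRB absorbance (570 nm), measured on cells fixed in 6% TCA after three days of compound treatment under 5% CO2 at 37° C.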

Read-outs that look alike come from different tables or passages of the source. A value given as a limit tells only on which side of the number the result lay.

T1 sequence (P43490 whole entry): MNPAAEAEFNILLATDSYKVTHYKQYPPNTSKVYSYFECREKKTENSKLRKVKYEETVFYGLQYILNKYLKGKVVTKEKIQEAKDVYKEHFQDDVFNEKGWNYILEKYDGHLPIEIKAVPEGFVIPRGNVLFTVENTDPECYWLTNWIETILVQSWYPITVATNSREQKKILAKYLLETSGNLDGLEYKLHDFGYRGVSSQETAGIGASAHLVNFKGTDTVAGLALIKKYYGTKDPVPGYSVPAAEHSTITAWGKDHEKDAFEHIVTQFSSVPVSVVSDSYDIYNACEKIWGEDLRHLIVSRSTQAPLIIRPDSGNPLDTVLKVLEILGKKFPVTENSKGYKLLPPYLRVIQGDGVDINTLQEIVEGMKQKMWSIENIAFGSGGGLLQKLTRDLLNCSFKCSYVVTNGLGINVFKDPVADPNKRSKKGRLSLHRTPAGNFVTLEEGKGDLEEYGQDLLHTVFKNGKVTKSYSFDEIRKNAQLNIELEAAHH

On to `CC(C)(C)c1cccc(S(=O)(=O)c2ccc(CNC(=O)c3cc4ccncc4o3)cc2)c1`, for which the 50% inhibitory concentration (IC50) – broadly, the concentration needed to halve the response being measured – on NAMPT (NAMPT enzymatic reaction) came out at 9.3 nM; with A2780 cells (SRB) it was 7 nM.
Take `CCOCc1ccccc1S(=O)(=O)c1ccc(CNC(=O)c2cc3cnccc3[nH]2)cc1`: the IC50 amounted to 18.5 nM on NAMPT (NAMPT enzymatic assay) and 6.7 nM with A2780 cells (SRB).
In the case of `CCCOc1ccc(S(=O)(=O)c2ccc(CNC(=O)c3cc4ccncc4s3)cc2)cc1Cl`, the IC50 is 15.1 nM at NAMPT (NAMPT enzymatic reaction) and 17.4 nM in the test with A2780 cells (SRB).
With `O=C(NCc1ccc(S(=O)(=O)c2ccc(C(F)(F)F)nc2)cc1)c1cc2ccncc2s1` [N-({4-[6-(trifluoromethyl)pyridine-3-sulfonyl]phenyl}methyl)thieno[2,3-c]pyridine-2-carboxamide], the values for the half-inhibitory concentration (IC50) on NAMPT (NAMPT enzymatic assay) and with A2780 cells (SRB) were 7.6 nM and 6.7 nM, respectively.
As for `O=C(NCc1ccc(S(=O)(=O)N2CC3CCC(C2)O3)cc1)c1cc2cnccc2[nH]1` [N-[(4-{8-oxa-3-azabicyclo[3.2.1]octane-3-sulfonyl}phenyl)methyl]-1H-pyrrolo[3,2-c]pyridine-2-carboxamide], the IC50 is 8 nM at NAMPT (NAMPT enzymatic reaction) and 3 nM in the test with A2780 cells (SRB assay).
Regarding `O=C(NCc1ccc(S(=O)(=O)c2ccc(C3CCCCC3)cc2)cc1)c1ccc2nccn2c1`, the IC50 on NAMPT (NAMPT enzymatic reaction) was found to be 17.8 nM; with A2780 cells (SRB) it was 11.7 nM.
With `O=C(NCc1ccc(S(=O)(=O)c2ccc(C(F)(F)F)cc2C(F)(F)F)cc1)c1cc2cnccc2[nH]1`, the IC50 amounted to 40.1 nM on NAMPT (NAMPT enzymatic assay) and 14 nM in the test on A2780 cells (SRB).
With `CC(C)COc1ccc(S(=O)(=O)c2ccc(CNC(=O)c3cc4cnccc4[nH]3)cc2)cc1`, the half-inhibitory concentration (IC50) on NAMPT (NAMPT enzymatic assay) came to 12.7 nM; with A2780 cells (SRB), 9.4 nM.
In the case of `Cc1ccc(Cl)c(S(=O)(=O)c2ccc(CNC(=O)c3cnc4[nH]ncc4c3)cc2)c1`, the values for the IC50 on NAMPT (NAMPT enzymatic reaction) and in the test with A2780 cells (SRB) were 60.2 nM and 65.9 nM, respectively.
Taken in the same sequence, the figures for `N#Cc1ccccc1S(=O)(=O)c1ccc(CNC(=O)c2cc3cnccc3[nH]2)cc1` [N-({4-[(2-cyanobenzene)sulfonyl]phenyl}methyl)-1H-pyrrolo[3,2-c]pyridine-2-carboxamide] were 25.3 nM and 62.9 nM.
`CNS(=O)(=O)c1ccccc1S(=O)(=O)c1ccc(CNC(=O)c2cnc3[nH]ncc3c2)cc1` [N-[(4-{[2-(methylsulfamoyl)benzene]sulfonyl}phenyl)methyl]-1H-pyrazolo[3,4-b]pyridine-5-carboxamide]: the IC50 is above 167 nM at NAMPT (NAMPT enzymatic assay) and above 10000 nM with A2780 cells (SRB).
Taken in the same sequence, the figures for `Cc1nc(C)c(S(=O)(=O)c2ccc(CNC(=O)c3ccc4nccn4c3)cc2)s1` [N-{[4-(dimethyl-1,3-thiazole-5-sulfonyl)phenyl]methyl}imidazo[1,2-a]pyridine-6-carboxamide] were 9 nM and 3.7 nM.
Taken in the same sequence, the figures for `CN(C)Cc1cccc(S(=O)(=O)c2ccc(CNC(=O)c3cc4ccncc4o3)cc2)c1` were 4.7 nM and 6.2 nM.
Consider `CN(C)c1ncc(S(=O)(=O)c2ccc(CNC(=O)c3cc4ccncc4s3)cc2)cn1` [N-({4-[2-(dimethylamino)pyrimidine-5-sulfonyl]phenyl}methyl)thieno[2,3-c]pyridine-2-carboxamide], for which the half-inhibitory concentration (IC50) on NAMPT (NAMPT enzymatic assay) worked out at 8 nM; in the test on A2780 cells (SRB), 1.7 nM.
With `N#Cc1ccc(S(=O)(=O)c2ccc(CNC(=O)c3cc4ccncc4o3)cc2)cc1` [N-({4-[(4-cyanobenzene)sulfonyl]phenyl}methyl)furo[2,3-c]pyridine-2-carboxamide], the half-inhibitory concentration (IC50) on NAMPT (NAMPT enzymatic reaction) turned out to be 5.3 nM; with A2780 cells (SRB), 30.9 nM.
On to `CC(C)c1ccc(S(=O)(=O)c2ccc(CNC(=O)c3ccc4nccn4c3)cc2)cc1` [N-[(4-{[4-(propan-2-yl)benzene]sulfonyl}phenyl)methyl]imidazo[1,2-a]pyridine-6-carboxamide], for which the IC50 at NAMPT (NAMPT enzymatic assay) was 14.6 nM; with A2780 cells (SRB), 6.66 nM.
Regarding `CCS(=O)(=O)c1cccc(S(=O)(=O)c2ccc(CNC(=O)c3cc4ccncc4s3)cc2)c1`, the IC50 is 2.8 nM at NAMPT (NAMPT enzymatic assay) and 5.4 nM with A2780 cells (SRB).
Turning to `Cc1cncc(S(=O)(=O)c2ccc(CNC(=O)c3cnc4[nH]ncc4c3)cc2)n1` [N-{[4-(6-methylpyrazine-2-sulfonyl)phenyl]methyl}-1H-pyrazolo[3,4-b]pyridine-5-carboxamide], the IC50 at NAMPT (NAMPT enzymatic assay) worked out at 34.9 nM; in the test on A2780 cells (SRB), 31.2 nM.
`COc1cc(Cl)cc(S(=O)(=O)c2ccc(CNC(=O)c3cc4cnccc4[nH]3)cc2)c1` [N-({4-[(3-chloro-5-methoxybenzene)sulfonyl]phenyl}methyl)-1H-pyrrolo[3,2-c]pyridine-2-carboxamide]: the IC50 is 17 nM on NAMPT (NAMPT enzymatic reaction) and 2.5 nM in the test on A2780 cells (SRB).
As for `O=C(NCc1ccc(S(=O)(=O)c2ccc(N3CCOCC3)nc2)cc1)c1ccc2nccn2c1` [N-({4-[6-(morpholin-4-yl)pyridine-3-sulfonyl]phenyl}methyl)imidazo[1,2-a]pyridine-6-carboxamide], the IC50 on NAMPT (NAMPT enzymatic assay) worked out at 9 nM; with A2780 cells (SRB), 1.5 nM.
Taken in the same sequence, the figures for `O=C(NCc1ccc(S(=O)(=O)c2csc(-c3cccc(F)c3)n2)cc1)c1cc2ccncc2s1` [N-({4-[2-(3-fluorophenyl)-1,3-thiazole-4-sulfonyl]phenyl}methyl)thieno[2,3-c]pyridine-2-carboxamide] were 6.6 nM and 24.4 nM.
Consider `COc1ccc(C(C)C)cc1S(=O)(=O)c1ccc(CNC(=O)c2cc3ccncc3s2)cc1` [N-[(4-{[2-methoxy-5-(propan-2-yl)benzene]sulfonyl}phenyl)methyl]thieno[2,3-c]pyridine-2-carboxamide], for which the values for the IC50 at NAMPT (NAMPT enzymatic reaction) and in the test with A2780 cells (SRB assay) were 9 nM and 6.2 nM, respectively.
As to `CN(C)CCOc1cccc(S(=O)(=O)c2ccc(CNC(=O)c3cc4ccncc4o3)cc2)c1`, the IC50 was 11.8 nM on NAMPT (NAMPT enzymatic assay) and 5.8 nM in the test with A2780 cells (SRB).
Taken in the same sequence, the figures for `COc1ccc(S(=O)(=O)c2ccc(CNC(=O)c3cc4cnccc4[nH]3)cc2)c(C(F)(F)F)c1` were 80.4 nM and 13 nM.
Consider `CCOc1cccc(S(=O)(=O)c2ccc(CNC(=O)c3cnc4nccn4c3)cc2)c1`, for which the IC50 at NAMPT (NAMPT enzymatic reaction) turned out to be 2.1 nM; in the test with A2780 cells (SRB) it was 6.7 nM.
Consider `O=C(Nc1ccc(S(=O)(=O)N2CCCCC2)cc1)c1cc2cnccc2[nH]1` [N-[4-(piperidine-1-sulfonyl)phenyl]-1H-pyrrolo[3,2-c]pyridine-2-carboxamide], for which the IC50 on NAMPT (NAMPT enzymatic reaction) was determined as 8 nM; in the test on A2780 cells (SRB assay), 6 nM.
With `CN1CCN(c2ccc(S(=O)(=O)c3ccc(CNC(=O)c4ccc5nccn5c4)cc3)cc2)CC1`, the values for the IC50 at NAMPT (NAMPT enzymatic assay) and in the test with A2780 cells (SRB) were 1 nM and 0.2 nM, respectively.
Taken in the same sequence, the figures for `Cc1ccc(Cl)c(S(=O)(=O)c2ccc(CNC(=O)c3cc4cnccc4[nH]3)cc2)c1F` were 6.5 nM and 7.1 nM.
Taken in the same sequence, the figures for `Cc1ccc(S(=O)(=O)c2ccc(CNC(=O)c3cc4cnccc4[nH]3)cc2)cn1` [N-{[4-(6-methylpyridine-3-sulfonyl)phenyl]methyl}-1H-pyrrolo[3,2-c]pyridine-2-carboxamide] were 55.7 nM and 13 nM.
Taken in the same sequence, the figures for `Cn1ncc2c(S(=O)(=O)c3ccc(CNC(=O)c4ccc5nccn5c4)cc3)cccc21` [N-{[4-(1-methyl-1H-indazole-4-sulfonyl)phenyl]methyl}imidazo[1,2-a]pyridine-6-carboxamide] were 12.5 nM and 3 nM.
As for `Cc1ccc(Cl)c(S(=O)(=O)c2ccc(CNC(=O)c3cnc4[nH]ncc4c3)cc2)c1F` [N-({4-[(6-chloro-2-fluoro-3-methylbenzene)sulfonyl]phenyl}methyl)-1H-pyrazolo[3,4-b]pyridine-5-carboxamide], the IC50 on NAMPT (NAMPT enzymatic assay) was 112 nM; with A2780 cells (SRB), 100 to 1000 nM.
Taken in the same sequence, the figures for `Cn1ncc2cc(S(=O)(=O)c3ccc(CNC(=O)c4cc5cnccc5[nH]4)cc3)ccc21` [N-{[4-(1-methyl-1H-indazole-5-sulfonyl)phenyl]methyl}-1H-pyrrolo[3,2-c]pyridine-2-carboxamide] were 5.7 nM and 3.1 nM.
Taken in the same sequence, the figures for `Cc1cc(C)n(-c2cccc(S(=O)(=O)c3ccc(CNC(=O)c4cnc5nccn5c4)cc3)c2)n1` were 1.8 nM and 4.1 nM.
In the case of `Cc1ccc(Cl)cc1S(=O)(=O)c1ccc(CNC(=O)c2cc3ccncc3o2)cc1`, the IC50 on NAMPT (NAMPT enzymatic reaction) was 5.8 nM; with A2780 cells (SRB), 7.8 nM.
Taken in the same sequence, the figures for `COc1cc(S(=O)(=O)c2ccc(CNC(=O)c3cnc4nccn4c3)cc2)ccc1Cl` were 2.7 nM and 5.2 nM.
Take `O=C(NCc1ccc(S(=O)(=O)c2ccc(C(F)(F)F)c(Cl)c2)cc1)c1ccc2nccn2c1`: the IC50 turned out to be 2.9 nM on NAMPT (NAMPT enzymatic assay) and 1.2 nM in the test with A2780 cells (SRB).
Regarding `O=C(NCc1ccc(S(=O)(=O)c2ccc(-n3cccn3)cc2F)cc1)c1ccc2nccn2c1` [N-[(4-{[2-fluoro-4-(1H-pyrazol-1-yl)benzene]sulfonyl}phenyl)methyl]imidazo[1,2-a]pyridine-6-carboxamide], the IC50 amounted to 8.44 nM at NAMPT (NAMPT enzymatic assay) and 12.8 nM in the test with A2780 cells (SRB).
Taken in the same sequence, the figures for `O=C(NCc1ccc(S(=O)(=O)c2ccc(F)c(OCC(F)(F)F)c2)cc1)c1cc2ccncc2o1` were 8.7 nM and 25.5 nM.
Take `O=C(NCc1ccc(S(=O)(=O)c2ccc(N3CCOCC3)cc2)cc1)c1cc2ccncc2o1`: the IC50 worked out at 4.6 nM at NAMPT (NAMPT enzymatic assay) and 2.5 nM in the test on A2780 cells (SRB).
Taken in the same sequence, the figures for `O=C(NCc1ccc(S(=O)(=O)c2cnc3n2CCCCC3)cc1)c1cnc2nccn2c1` [N-[(4-{5H,6H,7H,8H,9H-imidazo[1,2-a]azepine-3-sulfonyl}phenyl)methyl]imidazo[1,2-a]pyrimidine-6-carboxamide] were 1.1 nM and 28.7 nM.
Taken in the same sequence, the figures for `O=C(NCc1ccc(S(=O)(=O)c2cccc(OC(F)(F)F)c2)cc1)c1ccc2nccn2c1` [N-[(4-{[3-(trifluoromethoxy)benzene]sulfonyl}phenyl)methyl]imidazo[1,2-a]pyridine-6-carboxamide] were 8.73 nM and 3.18 nM.
